Values joined by “and” are separate entries in the source; they are usually repeats but may differ in a detail not shown here. Equal entries are not always repeated. Where two headings read alike, the source gives them in different places.
How the values were obtained:
PC3 cells = test: SRB cell viability assay, docetaxel-sensitive PC3 cells; type: cell-based; conditions: Homo sapiens, PC-3; read-out: IC50 of drug when cells treated with drug only
Method: (§1) The chemotherapeutic drugs that were tested for chemosensitization in combination with LTG-E were docetaxel, daunorubicin, Herceptin®, and lapatinib. […] Table 17 also contains the serially-diluted concentrations of drugs that each cell line was tested against.

DU145 cells = test: SRB cell viability assay, docetaxel-sensitive DU145 cells; type: cell-based; conditions: Homo sapiens; for viability at 1 pM: docetaxel 0.001 nM 72 h; for viability at 0.000333 µM: docetaxel 0.333 nM 72 h; for viability at 0.001 µM: docetaxel 1 nM 72 h; for viability at 0.00333 µM: docetaxel 3.33 nM 72 h; for viability at 0.01 µM: docetaxel 10 nM 72 h; for viability at 0.0333 µM: docetaxel 33.3 nM 72 h; for viability at 0.1 µM: docetaxel 100 nM 72 h; for IC50: DU-145
Method: as §1
Using the methods described in Example 2, the chemosensitizing effect of LGT-E pretreatment on docetaxel-treated DU145 cells was studied. […] Table 20 reports control data obtained from DU145 cells that were not pre-treated with LGT-E. FIG. 7 summarizes the data of Tables 19 and 20 in a graphical format.

K562 cells = test: SRB cell viability assay, daunorubicin-sensitive K562 cells; type: cell-based, human; conditions: 72 h, background = 0.044; for mean A at 565 nm: no LGT-E pre-treatment; for mean A at 516 nm: pre-treated with 25 μg/ml LGT-E
Method: Cell culture of the above cell lines was performed as described in Example 2, except that 5,000, rather than 3,000 cells were plated per well for the K562, K562/Dox, BT474, SkBr3 lines.
Table 17 also contains the serially-diluted concentrations of drugs that each cell line was tested against.
Table 36 reports the cell viability data relating to pre-treatment with LTG-E prior to daunorubicin treatment. Table 37 reports control data obtained from cells that were not pre-treated with LGT-E prior to daunorubicin treatment. FIG. 15 summarizes the data of Tables 36 and 37 in a graphical format.

DU145-TxR cells = test: SRB cell viability assay, docetaxel-resistant DU145-TxR cells; type: cell-based; conditions: Homo sapiens; for IC50: docetaxel, DU-145-TxR; for viability at 1 pM: docetaxel 0.001 nM 72 h; for viability at 0.000333 µM: docetaxel 0.333 nM 72 h; for viability at 0.001 µM: docetaxel 1 nM 72 h; for viability at 0.00333 µM: docetaxel 3.33 nM 72 h; for viability at 0.01 µM: docetaxel 10 nM 72 h; for viability at 0.0333 µM: docetaxel 33.3 nM 72 h
Method: Using the methods described in Example 2, the chemosensitizing effect of LGT-E pretreatment on docetaxel-treated DU145-TrX cells was studied. […] The DU145-TxR cells were plated at passage 38. […] Tables 6, 8, and 10 report control data obtained from DU145-TxR cells that were not pre-treated with LGT-E. FIG. 4 summarizes the data of Tables 5-10 in a graphical format.

[1] = DU-145, read-out: % viable, DU145, LGT-E 50 μg/ml pre-treatment
[2] = DU-145, read-out: % viable, DU145, no LGT-E pre-treatment
[3] = Docetaxel 0.001 nM (so in the source)
[4] = Docetaxel 0.1 nM (so in the source)
[5] = Docetaxel 3.33 nM (so in the source)
[6] = Docetaxel 10 nM (so in the source)
[7] = Docetaxel 33.3 nM (so in the source)
[8] = Docetaxel 100 nM (so in the source)
[9] = read-out: % viable, DU145-TxR, LGT-E 25 μg/ml pre-treatment
[10] = read-out: % viable, DU145-TxR, LGT-E 50 μg/ml pre-treatment

In the case of `CC(=O)O[C@@]12CO[C@@H]1C[C@H](O)[C@@]1(C)C(=O)[C@H](O)C3=C(C)[C@@H](OC(=O)[C@H](O)[C@@H](NC(=O)OC(C)(C)C)c4ccccc4)C[C@@](O)([C@@H](OC(=O)c4ccccc4)[C@H]21)C3(C)C` [Docetaxel, docetaxel], the IC50 (PC3 cells) is reported as 1.8 nM and 0.00145 µg/mL, the viability at 1 pM (DU145 cells; [1]) is reported as 100% and the viability at 0.000333 µM (DU145 cells; [1]) is reported as 100%. For the same compound, the viability at 0.001 µM (DU145 cells; [1]) was 97.4%, the viability at 0.00333 µM (DU145 cells; [1]) was 54% and the viability at 0.01 µM (DU145 cells; [1]) was 23.9%. It also gave a viability at 0.0333 µM (DU145 cells; [1]) of 9.6%, a viability at 0.1 µM (DU145 cells; [1]) of 9.3% and a viability at 1 pM (DU145 cells; [2]) of 100%. It also gave a viability at 0.0001 µM (DU145 cells; DU-145, read-out: % viable, DU145, no LGT-E pre-treatment, docetaxel 0.1 nM 72 h) of 100%, a viability at 0.000333 µM (DU145 cells; [2]) of 101% and a viability at 0.001 µM (DU145 cells; [2]) of 100%. For the same compound, the viability at 0.00333 µM (DU145 cells; [2]) was 86.9%, the viability at 0.01 µM (DU145 cells; [2]) was 44.4% and the viability at 0.0333 µM (DU145 cells; [2]) was 24.1%. The viability at 0.1 µM (DU145 cells; [2]) was 21.8%, the IC50 (DU145 cells; read-out: IC50 of drug when cells pre-treated with Chemosensitizing Agent before drug treatment) was 3.39 nM and 0.00274 µg/mL and the IC50 (DU145 cells; read-out: IC50 of drug when cells treated with drug only) was 6.65 nM and 0.00537 µg/mL. For the same compound, the “mean A at 565 nm” value (K562 cells; [3]) was 2.844, the “mean A at 516 nm” value (K562 cells; [3]) was 2.860 and the “mean A at 565 nm” value (K562 cells; [4]) was 2.874. For the same compound, the “mean A at 516 nm” value (K562 cells; [4]) was 2.851, the “mean A at 565 nm” value (K562 cells; Docetaxel 0.333 nM (so in the source)) was 2.274 and the “mean A at 565 nm” value (K562 cells; Docetaxel 1 nM (so in the source)) was 1.414. The “mean A at 565 nm” value (K562 cells; [5]) was 1.269, the “mean A at 516 nm” value (K562 cells; [5]) was 1.331 and the “mean A at 565 nm” value (K562 cells; [6]) was 0.732. The “mean A at 516 nm” value (K562 cells; [6]) was 1.148, the “mean A at 565 nm” value (K562 cells; [7]) was 0.300 and the “mean A at 516 nm” value (K562 cells; [7]) was 0.723. The “mean A at 565 nm” value (K562 cells; [8]) was 0.436, the “mean A at 516 nm” value (K562 cells; [8]) was 0.553 and the IC50 (DU145-TxR cells; LGT-E 25 μg/ml pre-treatment, read-out: IC50 of drug when cells pre-treated with Chemosensitizing Agent before drug treatment) was 5.76 nM and 0.00465 µg/mL. The IC50 (DU145-TxR cells; line of LGT-E 25 μg/ml, read-out: IC50 of drug when cells treated with drug only) was > 100 nM and ≥ 0.0808 µg/mL, the viability at 1 pM (DU145-TxR cells; [9]) was 100% and the viability at 0.0001 µM (DU145-TxR cells; read-out: % viable, DU145-TxR, LGT-E 25 μg/ml pre-treatment, docetaxel 0.1 nM 72 h) was 102%. It also gave a viability at 0.000333 µM (DU145-TxR cells; [9]) of 102%, a viability at 0.001 µM (DU145-TxR cells; [9]) of 98.6% and a viability at 0.00333 µM (DU145-TxR cells; [9]) of 74.7%. The viability at 0.01 µM (DU145-TxR cells; [9]) was 33.5%, the viability at 0.0333 µM (DU145-TxR cells; [9]) was 13.7% and the viability at 0.1 µM (DU145-TxR cells; read-out: % viable, DU145-TxR, LGT-E 25 μg/ml pre-treatment, docetaxel 100 nM 72 h) was 6.2%. It also gave a viability at 1 pM (DU145-TxR cells; [10]) of 100%, a viability at 0.000333 µM (DU145-TxR cells; [10]) of 97% and a viability at 0.001 µM (DU145-TxR cells; [10]) of 82.1%. It also gave a viability at 0.00333 µM (DU145-TxR cells; [10]) of 34.4%, a viability at 0.01 µM (DU145-TxR cells; [10]) of 11.6% and a viability at 0.0333 µM (DU145-TxR cells; [10]) of 5.4%.

Source: US10149876B2, “Tripterygium wilfordii extracts to overcome chemotherapy resistance” (WESTERN UNIVERSITY OF HEALTH SCIENCES, priority 2012, dated 2018)
